This experiment has as its system Plasmodium falciparum. The experiment in a line: GSK_TCMDC: Inhibition of Plasmodium falciparum 3D7 in whole erythrocytes, using parasite LDH activity as an index of growth. Type of experiment: functional, organism-based. To be noted: Plasmodium falciparum, 3D7.
Regarding `CS(=O)(=O)c1cccc(-c2cnc3[nH]cc(-c4cccc(CCN)c4)c3c2)c1`, the XC50 was determined as 1560 nM.

Regarding `CCN(CCCN1CCCCC1)c1cc(C)nc(Nc2ccc(C)c(F)c2)n1`, the XC50 was found to be 273 nM.

`CC(C)(C)c1ccc(Cn2c(=N)n(CC(=O)c3ccc(-c4ccccc4)cc3)c3ccccc32)cc1` had an XC50 of 158 nM.

The compound `CC(C)c1ccc(C=CC(=O)N2CCC(CCN3CCC(c4c[nH]c5ccccc45)CC3)CC2)cc1` showed an XC50 of 1260 nM.

As to `COc1cc(NC(=O)CCCN2CCN(c3cccc(Cl)c3Cl)CC2)ccc1N1CCN(C(C)C)CC1`, the XC50 is 946 nM.

The compound `CCc1ccc(CN2CCC(NC(=O)c3ccc(-c4ccccc4F)s3)CC2)cc1` came in with an XC50 of 1490 nM.

Compound `Cc1cccc2nc(-c3ccc(-c4cccc(CNC(C)C)c4)s3)[nH]c12` had an XC50 of 231 nM.

Compound `CCOc1ccc(C(=O)N2CCOC(CCN3CCC(c4ccccc4)CC3)(c3ccc(Cl)c(Cl)c3)C2)cc1` (centres undefined) yielded an XC50 of 854 nM.

Take `Cn1cnnc1Sc1ccc(CN2CCOc3ccc(C4=CCCCC4)cc3C2)o1`: the XC50 came out at 849 nM.

`CCOc1ccc2ccccc2c1CNCCCCCCNCc1c(OCC)ccc2ccccc12` yielded an XC50 of 576 nM.

Consider `CN1CCC(NCc2ccc(-c3cnc(NCc4ccccc4)nc3)cc2)CC1`, for which the XC50 came out at 827 nM.

Take `CCCCOC(=O)[C@H](CCC)NC(=O)c1ccc(NS(=O)(=O)c2ccc3nc(N)[nH]c(=O)c3c2)cc1`: the XC50 amounted to 198 nM.

As for `Cc1cc(F)ccc1-c1nc(NCC(O)CNCCc2ccccc2)nc2c1ccc(=O)n2-c1c(F)cccc1F` (centres undefined), the XC50 worked out at 539 nM.

Regarding `COc1ccc(-c2nc(NCc3ccccc3)c3cc(OC)c(OC)cc3n2)cc1`, the XC50 came to 398 nM.

As to `Cc1cc(C(=O)Nc2nc(-c3ccccn3)nc3ccsc23)no1`, the XC50 stood at 807 nM.

Compound `Cc1ccc(F)c(NC(=O)c2c(-c3c(F)cccc3Cl)noc2C)c1` displayed an XC50 of 934 nM.

Regarding `Cc1ccc(C2CC(c3cccs3)=NN2C(=O)c2ccc(Br)o2)cc1` (centres undefined), the XC50 was determined as 887 nM.

Consider `CCCCCCNC(=N)c1ccc2[nH]c(-c3ccc(O)cc3)nc2c1`, for which the XC50 was determined as 190 nM.

For the compound `Cc1cc(Oc2ccc(-n3ccnc3)cc2)nc(N2CCN(CCCN3CCCC3)CC2)n1`, the XC50 is 928 nM.

`Cc1cc(NC(=O)c2coc3cc(F)c(N4CC(C)N(C)C(C)C4)cc23)ccc1-n1ccnc1` (centres undefined): the XC50 is 841 nM.

`CCc1cn(C)c2c(N3CCCC3=O)cc(C(=O)N[C@@H](Cc3ccccc3)[C@H](O)CNC(C)(C)CCCC(C)C)cc12`: the XC50 was 487 nM.

Compound `CCCCCCSc1nnc(COc2cccc3ccccc23)n1-c1ccc(OC)cc1` yielded an XC50 of 45.2 nM.

Regarding `COc1cc(Cl)c(C)cc1-n1cc(C(=O)c2cc(Br)ccc2O)cc(C#N)c1=O`, the XC50 came out at 874 nM.

As for `O=c1cc(NCCC(CNCc2cc3ccccc3o2)NCc2cc(Br)cc(Br)c2)[nH]c2ccccc12` (centres undefined), the XC50 was 1210 nM.

As for `O=C(NCc1ccc2c(c1)OCO2)c1nn(CCN2CCC(N3CCCC3)CC2)cc1-c1ccc(Cl)c(Cl)c1`, the XC50 was determined as 935 nM.

For the compound `CCn1ccc2c(N3CCCCS3(=O)=O)cc(C(=O)N[C@@H](Cc3ccccc3)[C@H](O)CNC(C)(C)c3cccc(C(F)(F)F)c3)cc21`, the XC50 stood at 133 nM.

With `c1ccc(CN2CCN(CCNc3c4ccccc4nc4ccccc34)CC2)cc1`, the XC50 stood at 876 nM.

As to `O=c1ccc2ncc(Cl)c3c2n1CC3CN1CCC(NCc2cc3c(cn2)OCCO3)CC1` (centres undefined), the XC50 was determined as 961 nM.

`COc1cccc(CNC(=O)c2cccc(-c3ccc(CN4CCC(N5CCCC5)CC4)cc3)n2)c1` returned an XC50 of 1790 nM.

Consider `c1cc(-c2ccc(CN3CCCCC3)cc2)cc(-c2nc3ccccc3[nH]2)c1`, for which the XC50 was 585 nM.

The compound `O=c1cc(NCCCNCc2ccccc2-c2ccccc2)[nH]c2ccccc12` yielded an XC50 of 975 nM.

In turn, `CC(C)n1c(CC2CCN(CC3CCN(C(=O)/C=C/c4ccc(Cl)c(Cl)c4)CC3)CC2)nc2ccccc21` registered an XC50 of 612 nM.

`COc1cc(NC(=O)c2sc(-c3ccc(Cl)cc3)cc2NC(=O)N2CCCC2)ccc1OCCN1CCCC1` had an XC50 of 569 nM.

`O=C(Nc1ccc(-c2ccccc2)cc1)Nc1cccc(OCCN2CCCC2)c1` showed an XC50 of 935 nM.
